Measured values as given in EP2970215B1, “PYRROLIDINE DERIVATIVES, PHARMACEUTICAL COMPOSITIONS CONTAINING THEM, AND THEIR USE IN THERAPY” (AbbVie Deutschland GmbH & Co. KG, priority 2013, dated 2014).

Biological target: T1, human GlyT1c transporter (Homo sapiens, UniProt P48067)
T1 construct: expressed in transfected cells; host or cells: CHO cells (recombinant; line hGlyT1c_5_CHO is named for the uptake assay)
T1 sequence (P48067 1-706): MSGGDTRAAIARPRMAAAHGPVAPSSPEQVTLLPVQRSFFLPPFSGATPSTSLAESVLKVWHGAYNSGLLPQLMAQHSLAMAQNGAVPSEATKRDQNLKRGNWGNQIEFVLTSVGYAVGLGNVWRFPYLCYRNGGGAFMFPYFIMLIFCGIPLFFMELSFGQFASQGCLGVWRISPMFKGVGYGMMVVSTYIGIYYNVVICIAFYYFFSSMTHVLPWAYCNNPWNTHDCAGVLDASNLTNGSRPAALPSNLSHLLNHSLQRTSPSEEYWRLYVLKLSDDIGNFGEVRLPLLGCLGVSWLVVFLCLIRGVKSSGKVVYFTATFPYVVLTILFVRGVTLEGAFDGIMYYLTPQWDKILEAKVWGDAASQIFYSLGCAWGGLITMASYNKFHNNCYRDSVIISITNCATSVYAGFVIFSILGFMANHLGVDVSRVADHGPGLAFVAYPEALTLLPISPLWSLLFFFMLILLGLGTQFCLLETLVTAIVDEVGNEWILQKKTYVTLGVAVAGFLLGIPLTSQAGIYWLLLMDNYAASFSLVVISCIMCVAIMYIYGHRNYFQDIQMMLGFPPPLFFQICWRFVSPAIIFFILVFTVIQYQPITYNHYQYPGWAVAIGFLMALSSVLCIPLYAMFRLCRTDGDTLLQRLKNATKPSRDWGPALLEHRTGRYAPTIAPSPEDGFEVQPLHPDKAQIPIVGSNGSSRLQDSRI
Assay: Radioligand binding assay using recombinant CHO cell membranes expressing human GlyT1
Details: radioligand binding to human GlyT1c transporter-expressing membranes
Source text: 2. Radioligand binding assays using recombinant CHO cell membranes expressing human GlyT1: […]

Question: Which Ki does the source give for Cn1cnc(S(=O)(=O)N2C[C@@H](NCc3cccc(Cl)c3)[C@H](c3ccc(F)cc3)C2)c1 (relative stereo) [Example 261, trans-N-(3-chlorobenzyl)-4-(4-fluorophenyl)-1-[(1-methyl-1H-imidazol-4-yl)sulfonyl]pyrrolidin-3-amine] here?
Answer: Its Ki is ≤ 1 µM.

Question: Cn1cnc(S(=O)(=O)N2C[C@@H](NCc3ccc(Cl)cc3)[C@H](c3ccc(F)cc3)C2)c1 (relative stereo) [Example 262, trans-N-(4-chlorobenzyl)-4-(4-fluorophenyl)-1-[(1-methyl-1H-imidazol-4-yl)sulfonyl]pyrrolidin-3-amine] was tested. Which Ki did it give?
Answer: The Ki was ≤ 0.01 µM.

Question: For Cn1cnc(S(=O)(=O)N2C[C@@H](NCc3ccccc3F)[C@H](c3ccc(F)cc3)C2)c1 (relative stereo) [Example 263, trans-N-(2-fluorobenzyl)-4-(4-fluorophenyl)-1-[(1-methyl-1H-imidazol-4-yl)sulfonyl]pyrrolidin-3-amine], which Ki is on record?
Answer: Its Ki is ≤ 0.1 µM.

Question: With Cn1cnc(S(=O)(=O)N2C[C@@H](NCc3cccc(F)c3)[C@H](c3ccc(F)cc3)C2)c1 (relative stereo) [Example 264, trans-N-(3-fluorobenzyl)-4-(4-fluorophenyl)-1-[(1-methyl-1H-imidazol-4-yl)sulfonyl]pyrrolidin-3-amine] as the compound, how does the Ki read?
Answer: Its Ki is ≤ 1 µM.

Question: For Cn1cnc(S(=O)(=O)N2C[C@@H](NCc3ccccc3C(F)(F)F)[C@H](c3ccc(F)cc3)C2)c1 (relative stereo) [Example 265, trans-4-(4-fluorophenyl)-1-[(1-methyl-1H-imidazol-4-yl)sulfonyl]-N-[2-(trifluoromethyl)benzyl]pyrrolidin-3-amine], which Ki is on record?
Answer: Its Ki is ≤ 1 µM.

Question: With Cn1cnc(S(=O)(=O)N2C[C@@H](NCc3cccc(C(F)(F)F)c3)[C@H](c3ccc(F)cc3)C2)c1 (relative stereo) [Example 266, trans-4-(4-fluorophenyl)-1-[(1-methyl-1H-imidazol-4-yl)sulfonyl]-N-[3-(trifluoromethyl)benzyl]pyrrolidin-3-amine] as the compound, how does the Ki read?
Answer: Its Ki is ≤ 1 µM.

Question: For Cn1cnc(S(=O)(=O)N2C[C@@H](NCc3ccc(C(F)(F)F)cc3)[C@H](c3ccc(F)cc3)C2)c1 (relative stereo) [Example 267, trans-4-(4-fluorophenyl)-1-[(1-methyl-1H-imidazol-4-yl)sulfonyl]-N-[4-(trifluoromethyl)benzyl]pyrrolidin-3-amine], which Ki is on record?
Answer: The Ki was ≤ 0.01 µM.

Question: For Cn1cnc(S(=O)(=O)N2C[C@@H](NCc3ccccn3)[C@H](c3ccc(F)cc3)C2)c1 (relative stereo) [Example 268, trans-4-(4-fluorophenyl)-1-[(1-methyl-1H-imidazol-4-yl)sulfonyl]-N-(pyridin-2-ylmethyl)pyrrolidin-3-amine], which Ki is on record?
Answer: The Ki was ≤ 10 µM.

Question: Cn1cnc(S(=O)(=O)N2C[C@@H](NCc3cccnc3)[C@H](c3ccc(F)cc3)C2)c1 (relative stereo) [Example 269, trans-4-(4-fluorophenyl)-1-[(1-methyl-1H-imidazol-4-yl)sulfonyl]-N-(pyridin-3-ylmethyl)pyrrolidin-3-amine] was tested. Which Ki did it give?
Answer: The Ki was ≤ 10 µM.

Question: How did the Ki turn out when Cn1cnc(S(=O)(=O)N2C[C@@H](NCc3ccncc3)[C@H](c3ccc(F)cc3)C2)c1 (relative stereo) [Example 270, trans-4-(4-fluorophenyl)-1-[(1-methyl-1H-imidazol-4-yl)sulfonyl]-N-(pyridin-4-ylmethyl)pyrrolidin-3-amine] was run?
Answer: Its Ki is ≤ 10 µM.

Question: Cn1cnc(S(=O)(=O)N2C[C@@H](C(=O)c3ccccc3)[C@H](c3ccc(F)cc3)C2)c1 (relative stereo) [Example 271, {trans-4-(4-fluorophenyl)-1-[(1-methyl-1H-imidazol-4-yl)sulfonyl]pyrrolidin-3-yl}(phenyl)methanone] was tested. Which Ki did it give?
Answer: Its Ki is ≤ 1 µM.

Question: Cn1cnc(S(=O)(=O)N2C[C@@H](C(=O)Nc3cccc(C(F)(F)F)c3Cl)[C@H](c3ccc(F)cc3)C2)c1 (relative stereo) [Example 272, Trans-N-[2-chloro-3-(trifluoromethyl)phenyl] -4-(4-fluorophenyl)-1 - [(1-methyl-1H-imidazol-4-yl)sulfonyl]pyrrolidine-3-carboxamide] was tested. Which Ki did it give?
Answer: Its Ki is ≤ 1 µM.

Question: How did the Ki turn out when Cn1cnc(S(=O)(=O)N2C[C@@H](C(=O)Nc3ccc(F)c(C(F)(F)F)c3)[C@H](c3ccc(F)cc3)C2)c1 (relative stereo) [Example 274, trans-4-(4-fluorophenyl)-N-[4-fluoro-3-(trifluoromethyl)phenyl]-1-[(1-methyl-1H-imidazol-4-yl)sulfonyl]pyrrolidine-3-carboxamide] was run?
Answer: The Ki was ≤ 0.1 µM.

Question: Which Ki does the source give for Cn1cnc(S(=O)(=O)N2C[C@@H](C(=O)Nc3ccc(F)c(Cl)c3)[C@H](c3ccc(F)cc3)C2)c1 (relative stereo) [Example 275, trans-N-(3-chloro-4-fluorophenyl)-4-(4-fluorophenyl)-1-[(1-methyl-1H-imidazol-4-yl)sulfonyl]pyrrolidine-3-carboxamide] here?
Answer: The Ki was ≤ 1 µM.

Question: For Cn1cnc(S(=O)(=O)N2C[C@@H](C(=O)Nc3ccc(C(F)(F)F)c(Cl)c3)[C@H](c3ccc(F)cc3)C2)c1 (relative stereo) [Example 276, trans-N-[3-chloro-4-(trifluoromethyl)phenyl]-4-(4-fluorophenyl)-1-[(1-methyl-1H-imidazol-4-yl)sulfonyl]pyrrolidine-3-carboxamide], which Ki is on record?
Answer: The Ki was ≤ 1 µM.

Question: Cn1cnc(S(=O)(=O)N2C[C@@H](Nc3cccc(Cl)c3)[C@H](c3ccccc3Cl)C2)c1 (relative stereo) [Example 278, trans-4-(2-chlorophenyl)-N-(3-chlorophenyl)-1-[(1-methyl-1H-imidazol-4-yl)sulfonyl]pyrrolidin-3-amine] was tested. Which Ki did it give?
Answer: Its Ki is ≤ 0.1 µM.

Question: How did the Ki turn out when Cn1cnc(S(=O)(=O)N2C[C@@H](NCc3ccc(Cl)cc3Cl)[C@H](c3ccc(F)cc3)C2)c1 (relative stereo) [Example 279, trans-N-(2,4-dichlorobenzyl)-4-(4-fluorophenyl)-1-[(1-methyl-1H-imidazol-4-yl)sulfonyl]pyrrolidin-3-amine] was run?
Answer: Its Ki is ≤ 10 µM.

Question: Which Ki does the source give for Cn1cnc(S(=O)(=O)N2C[C@@H](NCc3ccc(Cl)cc3Cl)[C@H](c3ccccc3)C2)c1 (relative stereo) [Example 280, trans-N-(2,4-dichlorobenzyl)-1-[(1-methyl-1H-imidazol-4-yl)sulfonyl]-4-phenylpyrrolidin-3-amine] here?
Answer: Its Ki is ≤ 0.01 µM.

Question: How did the Ki turn out when Cn1cnc(S(=O)(=O)N2C[C@@H](NCc3ccc(C(F)(F)F)cc3Cl)[C@H](c3ccccc3)C2)c1 (relative stereo) [Example 281, trans-N-[2-chloro-4-(trifluoromethyl)benzyl]-1-[(1-methyl-1H-imidazol-4-yl)sulfonyl]-4-phenylpyrrolidin-3-amine] was run?
Answer: The Ki was ≤ 0.01 µM.

Question: Which Ki does the source give for Cn1cnc(S(=O)(=O)N2C[C@@H](NCc3ccc(Cl)cc3Cl)[C@H](c3ccccc3F)C2)c1 (relative stereo) [Example 282, trans-N-(2,4-dichlorobenzyl)-4-(2-fluorophenyl)-1-[(1-methyl-1H-imidazol-4-yl)sulfonyl]pyrrolidin-3-amine] here?
Answer: Its Ki is ≤ 0.1 µM.

Question: With Cn1cnc(S(=O)(=O)N2C[C@@H](NCc3ccc(C(F)(F)F)cc3Cl)[C@H](c3ccccc3F)C2)c1 (relative stereo) [Example 283, trans-N-[2-chloro-4-(trifluoromethyl)benzyl] -4-(2-fluorophenyl)-1-[(1-methyl-1H-imidazol-4-yl)sulfonyl]pyrrolidin-3-amine] as the compound, how does the Ki read?
Answer: The Ki was ≤ 0.1 µM.

Question: How did the Ki turn out when Cn1cnc(S(=O)(=O)N2C[C@@H](NCc3ccc(Cl)cc3Cl)[C@H](c3ccccc3Cl)C2)c1 (relative stereo) [Example 284, trans-4-(2-chlorophenyl)-N-(2,4-dichlorobenzyl)-1-[(1-methyl-1H-imidazol-4-yl)sulfonyl]pyrrolidin-3-amine] was run?
Answer: The Ki was ≤ 0.1 µM.

Question: Which Ki does the source give for Cn1cnc(S(=O)(=O)N2C[C@@H](NCc3ccc(C(F)(F)F)cc3Cl)[C@H](c3ccccc3Cl)C2)c1 (relative stereo) [Example 285, trans-4-(2-chlorophenyl)-N-[2-chloro-4-(trifluoromethyl)benzyl]-1-[(1-methyl-1H-imidazol-4-yl)sulfonyl]pyrrolidin-3-amine] here?
Answer: The Ki was ≤ 0.1 µM.

Question: How did the Ki turn out when Cn1cnc(S(=O)(=O)N2C[C@@H](NCc3ccc(Cl)cc3Cl)[C@H](c3cccnc3)C2)c1 (relative stereo) [Example 286, trans-N-(2,4-dichlorobenzyl)-1-[(1-methyl-1H-imidazol-4-yl)sulfonyl]-4-(pyridin-3-yl)pyrrolidin-3-amine] was run?
Answer: The Ki was ≤ 10 µM.

Question: With Cn1cnc(S(=O)(=O)N2C[C@@H](C(=O)NCc3ccccc3)[C@H](c3ccc(F)cc3)C2)c1 (relative stereo) [Example 289, Trans-N-benzyl-4-(4-fluorophenyl)-1-[(1-methyl-1H-imidazol-4-yl)sulfonyl]pyrrolidine-3-carboxamide] as the compound, how does the Ki read?
Answer: Its Ki is ≤ 1 µM.

Question: How did the Ki turn out when Cn1cnc(S(=O)(=O)N2C[C@@H](CNc3ccccc3)[C@H](c3ccc(F)cc3)C2)c1 (relative stereo) [Example 290, N-({trans-4-(4-fluorophenyl)-1-[(1-methyl-1H-imidazol-4-yl)sulfonyl]pyrrolidin-3-yl}methyl)aniline] was run?
Answer: Its Ki is ≤ 10 µM.
